The values that follow come from ChEMBL document CHEMBL3046261, “Efficient entry to diversely functionalized spirooxindoles from isatin and their biological activity” (Med Chem Res, 2013).

The assay in a line: Cytotoxicity against Homo sapiens (human) U87 cells by MTT assay. Format: functional, cell-based, U-87MG ATCC. The following applies: U-87 MG.

Converted amounts (≈) assume the structure as drawn.

In turn, `N#CC1=C(N)Oc2[nH]c(=O)[nH]c(=S)c2C12C(=O)N(CCCCCCCCCCBr)c1ccccc12` (configuration not stated) gave an IC50 of 39 µg/mL (≈ 69.8 µM).
`O=NN(CCCl)C(=O)NCCCl` [CARMUSTINE]: half-maximal inhibition (IC50) was put at 3.9 µg/mL (≈ 18.2 µM).
The figure for `N#CC1=C(N)Oc2c(c(=O)oc3ccccc23)C12C(=O)Nc1ccccc12` (configuration not stated) is 78 µg/mL (≈ 218 µM); for `N#CC1=C(N)Oc2c(c(=O)oc3ccccc23)C12C(=O)N(CCCCBr)c1ccccc12` (configuration not stated) it is 78 µg/mL (≈ 158 µM); for `N#CC1=C(N)Oc2[nH]c(=O)[nH]c(=S)c2C12C(=O)N(CCCBr)c1ccccc12` (configuration not stated) it is 624 µg/mL (≈ 1360 µM).
In the case of `N#CC1=C(N)Oc2[nH]c(=S)[nH]c(=O)c2C12C(=O)Nc1ccc(Br)cc12` (configuration not stated), the IC50 turned out to be 156 µg/mL (≈ 373 µM).
For the molecule `O=C1C(=O)N(CCCCCCBr)c2ccccc21`, the IC50 came out at 19 µg/mL (≈ 61.3 µM).
In the case of `CC1(C)CC(=O)C2=C(C1)OC(N)=C(C#N)C21C(=O)N(CCCCBr)c2ccccc21` (configuration not stated), it took 156 µg/mL (≈ 332 µM) to reach half-maximal inhibition (IC50).
As for `Cc1nn(-c2ccccc2)c2c1C1(C(=O)N(CCCCCCBr)c3ccccc31)C(C#N)=C(N)O2` (configuration not stated), the concentration for half-maximal inhibition (IC50) stood at 78 µg/mL (≈ 146 µM).
Take `N#CC1=C(N)Oc2[nH]c(=O)[nH]c(=O)c2C12C(=O)Nc1ccc(Br)cc12` (configuration not stated): the IC50 was found to be 78 µg/mL (≈ 194 µM).
`Cc1nn(-c2ccccc2)c2c1C1(C(=O)N(CCBr)c3ccccc31)C(C#N)=C(N)O2` (configuration not stated) yielded an IC50 of 78 µg/mL (≈ 164 µM).
As to `N#CC1=C(N)Oc2[nH]c(=O)[nH]c(=O)c2C12C(=O)N(CCBr)c1ccccc12` (configuration not stated), 78 µg/mL (≈ 181 µM) corresponded to half-maximal inhibition (IC50).
Molecule `N#CC1=C(N)OC2=C(C(=O)CCC2)C12C(=O)Nc1ccc(Br)cc12` (configuration not stated) came in with a concentration for half-maximal inhibition (IC50) of 312 µg/mL (≈ 808 µM).
Then `N#CC1=C(N)OC2=C(C(=O)CCC2)C12C(=O)Nc1ccccc12` (configuration not stated), with 156 µg/mL (≈ 508 µM); and `Cc1nn(-c2ccccc2)c2c1C1(C(=O)Nc3ccc(Br)cc31)C(C#N)=C(N)O2` (configuration not stated), with 156 µg/mL (≈ 348 µM).
As for `N#CC1=C(N)OC2=C(C(=O)CCC2)C12C(=O)N(CCCBr)c1ccccc12` (configuration not stated), the concentration for half-maximal inhibition (IC50) amounted to 624 µg/mL (≈ 1460 µM).
In turn, `CC1(C)CC(=O)C2=C(C1)OC(N)=C(C#N)C21C(=O)N(CCCCCCBr)c2ccccc21` (configuration not stated) returned an IC50 of 78 µg/mL (≈ 156 µM).
Then `CC1(C)CC(=O)C2=C(C1)OC(N)=C(C#N)C21C(=O)N(CCCBr)c2ccccc21` (configuration not stated), with 312 µg/mL (≈ 684 µM); and `N#CC1=C(N)Oc2[nH]c(=O)[nH]c(=O)c2C12C(=O)Nc1ccccc12` (configuration not stated), with 312 µg/mL (≈ 965 µM); and `N#CC1=C(N)Oc2[nH]c(=O)[nH]c(=O)c2C12C(=O)N(CCCBr)c1ccccc12` (configuration not stated), with 312 µg/mL (≈ 702 µM).
The figure for `N#CC1=C(N)OC2=C(C(=O)CCC2)C12C(=O)N(CCBr)c1ccccc12` (configuration not stated) is 78 µg/mL (≈ 188 µM); for `O=C1C(=O)N(CCCCBr)c2ccccc21` it is 19 µg/mL (≈ 67.3 µM).
The molecule `N#CC1=C(N)Oc2c(c(=O)oc3ccccc23)C12C(=O)N(CCBr)c1ccccc12` (configuration not stated) returned an IC50 of 78 µg/mL (≈ 168 µM).
The molecule `Cc1nn(-c2ccccc2)c2c1C1(C(=O)N(CCCBr)c3ccccc31)C(C#N)=C(N)O2` (configuration not stated) yielded an IC50 of 78 µg/mL (≈ 159 µM).
The molecule `N#CC1=C(N)Oc2c(c(=O)oc3ccccc23)C12C(=O)N(CCCCCCBr)c1ccccc12` (configuration not stated) displayed a 50% inhibitory concentration (IC50) of 156 µg/mL (≈ 300 µM).
The figure for `CC1(C)CC(=O)C2=C(C1)OC(N)=C(C#N)C21C(=O)N(CCBr)c2ccccc21` (configuration not stated) is 78 µg/mL (≈ 176 µM); for `O=C1C(=O)N(CCCCCCCCCCBr)c2ccccc21` it is 19 µg/mL (≈ 51.9 µM); for `N#CC1=C(N)Oc2[nH]c(=O)[nH]c(=O)c2C12C(=O)N(CCCCBr)c1ccccc12` (configuration not stated) it is 312 µg/mL (≈ 681 µM).
The figure for `CC1(C)CC(=O)C2=C(C1)OC(N)=C(C#N)C21C(=O)N(CCCCCCCCCCBr)c2ccccc21` (configuration not stated) is 2.5 µg/mL (≈ 4.51 µM); for `N#CC1=C(N)Oc2c(c(=O)oc3ccccc23)C12C(=O)N(CCCCCCCCCCBr)c1ccccc12` (configuration not stated) it is 39 µg/mL (≈ 67.7 µM); for `Cc1nn(-c2ccccc2)c2c1C1(C(=O)N(CCCCBr)c3ccccc31)C(C#N)=C(N)O2` (configuration not stated) it is 39 µg/mL (≈ 77.3 µM).
As for `N#CC1=C(N)Oc2[nH]c(=S)[nH]c(=O)c2C12C(=O)N(CCCCBr)c1ccccc12` (configuration not stated), the 50% inhibitory concentration (IC50) is 78 µg/mL (≈ 164 µM).
In turn, `N#CC1=C(N)Oc2[nH]c(=S)[nH]c(=O)c2C12C(=O)N(CCBr)c1ccccc12` (configuration not stated) registered an IC50 of 78 µg/mL (≈ 175 µM).
`N#CC1=C(N)Oc2c(c(=O)oc3ccccc23)C12C(=O)Nc1ccc(Br)cc12` (configuration not stated) had an IC50 of 78 µg/mL (≈ 179 µM).
Molecule `O=C1C(=O)N(CCBr)c2ccccc21` returned an IC50 of 4.9 µg/mL (≈ 19.3 µM).
`O=C1C(=O)N(CCCBr)c2ccccc21` displayed an IC50 of 2.5 µg/mL (≈ 9.32 µM).
Turning to `N#CC1=C(N)Oc2[nH]c(=O)[nH]c(=O)c2C12C(=O)N(CCCCCCBr)c1ccccc12` (configuration not stated), the IC50 turned out to be 78 µg/mL (≈ 160 µM).
`N#CC1=C(N)Oc2[nH]c(=O)[nH]c(=O)c2C12C(=O)N(CCCCCCCCCCBr)c1ccccc12` (configuration not stated) had a 50% inhibitory concentration (IC50) of 39 µg/mL (≈ 71.9 µM).
On to `N#CC1=C(N)Oc2[nH]c(=S)[nH]c(=O)c2C12C(=O)N(CCCCCCBr)c1ccccc12` (configuration not stated), for which the midpoint of inhibition, the IC50, lay at 78 µg/mL (≈ 155 µM).
As to `N#CC1=C(N)Oc2c(c(=O)oc3ccccc23)C12C(=O)N(CCCBr)c1ccccc12` (configuration not stated), the half-inhibitory concentration (IC50) worked out at 156 µg/mL (≈ 326 µM).
With `Cc1nn(-c2ccccc2)c2c1C1(C(=O)N(CCCCCCCCCCBr)c3ccccc31)C(C#N)=C(N)O2` (configuration not stated), the IC50 came out at 19 µg/mL (≈ 32.3 µM).
On to `Cc1nn(-c2ccccc2)c2c1C1(C(=O)Nc3ccccc31)C(C#N)=C(N)O2` (configuration not stated), for which the IC50 was determined as 156 µg/mL (≈ 422 µM).
